Measured values reported in US8815875B2 (Merck Sharp & Dohme Corp., priority 2008, dated 2014).

Biological target: FABP4 (Homo sapiens, UniProt P15090)
Experiment: TdF (Temperature Dependence Fluorescence) assay, thermal shift, FABP4
Type: binding
In short: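 Binding measured as ΔTm versus protein alone; binding constants derived by nonlinear fitting with ΔHL set to −7 kcal/mol and ΔCpL to zero.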

Chain of FABP4 (P15090 whole entry, species assumed): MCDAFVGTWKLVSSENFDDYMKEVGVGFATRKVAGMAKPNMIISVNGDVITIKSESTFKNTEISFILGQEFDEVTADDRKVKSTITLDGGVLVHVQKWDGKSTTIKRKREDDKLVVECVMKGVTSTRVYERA

Compound | Kd [nM] | FABP4 TdF Kd
O=c1cc(CSc2cccc(Cl)c2C2CCC2)[nH]c2nc(-c3ccccc3)nn12 [52-5] | ≤ 1 | –
O=c1cc(COc2cc(Cl)ccc2CC2CC2)[nH]c2nc(-c3ccccc3)nn12 [43-3] | – | B (0.5 ≦ B < 0.001 μM)
CCc1ccc(OCc2cc(=O)n3nc(Cc4ccccc4)nc3[nH]2)cc1 [8-11] | > 500 | –
C=CCc1c(Cl)cccc1OCc1cc(=O)n2nc(-c3ccccc3)nc2[nH]1 [42-3] | – | B (0.5 ≦ B < 0.001 μM)
C[C@@H]1C[C@H](OCc2cc(=O)n3nc(-c4ccccc4)nc3[nH]2)CC(C)(C)C1 [1-111] | – | B (0.5 ≦ B < 0.001 μM)
O=C(NCC1(c2ccccc2Cl)CC1)c1c(Cl)cccc1OCc1cc(=O)n2nc(-c3ccccc3)nc2[nH]1 [47-29, 2-chloro-N-((1-(2-chlorophenyl)cyclopropyl)methyl)-6-((7-oxo-2-phenyl-4,7-dihydro-[1,2,4]triazolo[1,5-a]pyrimidin-5-yl)methoxy)benzamide] | ≤ 1 | –
CC1(C)CC(OCc2cc(=O)n3nc(-c4ccccc4)nc3[nH]2)CC(C)(C)C1 [1-97] | – | B (0.5 ≦ B < 0.001 μM)
Cn1ncc2cccc(NCc3cc(=O)n4nc(-c5ccccc5)nc4[nH]3)c21 [1-106] | > 500 | –
O=C(NCC1(CO)CCC1)c1ccccc1OCc1[nH]c2nc(-c3ccccc3)nn2c(=O)c1Cl [24-10] | > 500 | –
O=C(CC1CC1)Nc1c(Cl)cccc1OCc1cc(=O)n2nc(-c3ccccc3)nc2[nH]1 [49-6] | – | B (0.5 ≦ B < 0.001 μM)
CCc1ccc(OCc2cc(=O)n3ncnc3[nH]2)cc1 [7-1] | > 500 | –
Nc1cc(C2CC2)n(C(=O)c2c(Cl)cccc2OCc2cc(=O)n3nc(-c4ccccc4)nc3[nH]2)n1 [47-49] | – | B (0.5 ≦ B < 0.001 μM)
Cc1ccc(Br)c2ccn(Cc3cc(=O)n4nc(-c5ccccc5)nc4[nH]3)c12 [1-38] | > 500 | –
O=C(Nc1c(Cl)cccc1OCc1cc(=O)n2nc(-c3ccccc3)nc2[nH]1)C1CCC1 [49-2] | – | B (0.5 ≦ B < 0.001 μM)
O=c1cc(CN2CC[S+]([O-])CC2)[nH]c2nc(-c3ccccc3)nn12 [1-77] | > 500 | –
Cc1cccc2c1OCCN2Cc1cc(=O)n2nc(-c3ccccc3)nc2[nH]1 [1-149] | – | B (0.5 ≦ B < 0.001 μM)
Cn1cc(Br)c(NCc2cc(=O)n3nc(-c4ccccc4)nc3[nH]2)n1 [1-146] | > 500 | –
CC1(C)CCC(=O)N(Cc2cc(=O)n3nc(-c4ccccc4)nc3[nH]2)C1 [1-95] | > 500 | –
Cc1c(Cl)cccc1N(Cc1cc(=O)n2nc(-c3ccccc3)nc2[nH]1)C1CC1 [17-2] | > 500 | –
CCc1ccc(CCc2cc(=O)n3nc(-c4ccccc4)nc3[nH]2)cc1 [14-3] | > 500 | –
O=c1cc(COc2ccc(I)cc2)[nH]c2nc(-c3ccccc3)nn12 [1-30] | > 500 | –
O=C(Nc1c(Cl)cccc1OCc1cc(=O)n2nc(-c3ccccc3)nc2[nH]1)C1CC1 [49-3] | – | B (0.5 ≦ B < 0.001 μM)
CCc1ccc(S(=O)(=O)Cc2cc(=O)n3nc(-c4ccccc4)nc3[nH]2)cc1 [12-2] | > 500 | –
CCN(C(=O)C1(OCc2cc(=O)n3nc(-c4ccccc4)nc3[nH]2)CCCCC1)C1CCCCC1 [48-38] | – | B (0.5 ≦ B < 0.001 μM)

Compound | Kd [nM] | FABP4 TdF Kd
O=c1cc(CN2CCc3c(C4CC4)cccc32)[nH]c2nc(-c3ccccc3)nn12 [29-1] | > 500 | –
O=C(NCC1(O)CCCCC1)C1(OCc2cc(=O)n3nc(-c4ccccc4)nc3[nH]2)CCCCC1 [48-56] | – | B (0.5 ≦ B < 0.001 μM)
N#Cc1cc(F)cc(OCc2cc(=O)n3nc(-c4ccccc4)nc3[nH]2)c1 [1-23] | > 500 | –
O=c1c(Cl)c(CN2CCCC2Cc2cccc(Cl)c2)[nH]c2nc(-c3ccccc3)nn12 (stereo not drawn) [24-5] | > 500 | –
O=c1cc(CN2CCCC2Cc2c(F)cccc2Cl)[nH]c2nc(-c3ccccc3)nn12 (stereo not drawn) [1-131] | – | B (0.5 ≦ B < 0.001 μM)
O=C(NCC1(c2ccc(Cl)cc2)CC1)C1CCCCC1OCc1cc(=O)n2nc(-c3ccccc3)nc2[nH]1 (stereo not drawn) [48-76] | – | B (0.5 ≦ B < 0.001 μM)
O=c1cc(COc2cccc(Cl)c2Cl)[nH]c2nc(-c3ccccc3)nn12 [1-67] | – | B (0.5 ≦ B < 0.001 μM)
CCCCC1(C)CN(Cc2cc(=O)n3nc(-c4ccccc4)nc3[nH]2)c2cccc(Cl)c21 (stereo not drawn) [41-3] | – | B (0.5 ≦ B < 0.001 μM)
CC1(C)CCCC(OCc2[nH]c3nc(-c4ccccc4)nn3c(=O)c2Cl)C1 (stereo not drawn) [24-2] | – | B (0.5 ≦ B < 0.001 μM)
CC(=O)c1c(Cl)cccc1OCc1cc(=O)n2nc(-c3ccccc3)nc2[nH]1 [31-2] | – | B (0.5 ≦ B < 0.001 μM)
CN(C)C(=O)C1(OCc2cc(=O)n3nc(-c4ccccc4)nc3[nH]2)CCCCC1 [48-30] | > 500 | –
O=c1cc(COc2cccc(Cl)c2CC2CC2)[nH]c2nc(-c3ccccc3)nn12 [43-2] | – | B (0.5 ≦ B < 0.001 μM)
COCC1(CNC(=O)c2ccccc2OCc2[nH]c3nc(-c4ccccc4)nn3c(=O)c2Cl)CC1 [24-17] | – | B (0.5 ≦ B < 0.001 μM)
CN(CCc1cccc(Cl)c1)C(=O)C1(OCc2cc(=O)n3nc(-c4ccccc4)nc3[nH]2)CCCCC1 [48-29] | – | B (0.5 ≦ B < 0.001 μM)
O=C(NCc1ccccc1)C1(OCc2cc(=O)n3nc(-c4ccccc4)nc3[nH]2)CCCCC1 [48-52] | – | B (0.5 ≦ B < 0.001 μM)
COCC1(CNC(=O)c2c(Cl)cccc2OCc2cc(=O)n3nc(-c4ccccc4)nc3[nH]2)CC1 [47-19, 2-chloro-N-((1-(methoxymethyl)cyclopropyl)methyl)-6-((7-oxo-2-phenyl-4,7-dihydro-[1,2,4]triazolo[1,5-a]pyrimidin-5-yl)methoxy)benzamide] | – | B (0.5 ≦ B < 0.001 μM)
O=c1cc(CN2Cc3ccccc3C2)[nH]c2nc(-c3ccccc3)nn12 [1-14] | > 500 | –
COc1ccccc1C1(CNC(=O)c2ccccc2OCc2[nH]c3nc(-c4ccccc4)nn3c(=O)c2Cl)CC1 [24-18] | ≤ 1 | –
CN(Cc1cc(=O)n2nc(-c3ccccc3)nc2[nH]1)C1Cc2ccccc2C1 [1-54] | > 500 | –
Nc1cc(C2CC2)nn1C(=O)c1c(Cl)cccc1OCc1cc(=O)n2nc(-c3ccccc3)nc2[nH]1 [47-50] | ≤ 1 | –
O=C(NCC1(c2ccccc2Cl)CC1)c1ccccc1OCc1cc(=O)n2nc(-c3ccccc3)nc2[nH]1 [47-60] | – | B (0.5 ≦ B < 0.001 μM)
Cc1ccc2ccccc2c1OCc1cc(=O)n2nc(-c3ccccc3)nc2[nH]1 [1-27] | – | B (0.5 ≦ B < 0.001 μM)
Cn1nc(C2CC2)cc1NCc1cc(=O)n2nc(-c3ccccc3)nc2[nH]1 [1-151] | > 500 | –
CCc1ccc(OCc2cc(=O)n3nc(CC)nc3[nH]2)cc1 [8-4] | > 500 | –

Compound | Kd [nM] | FABP4 TdF Kd
COc1cccc(C2(NC(=O)C3(OCc4cc(=O)n5nc(-c6ccccc6)nc5[nH]4)CCCCC3)CC2)c1 [48-71] | – | B (0.5 ≦ B < 0.001 μM)
Cc1c(Cl)cccc1OC(C)c1cc(=O)n2nc(-c3ccccc3)nc2[nH]1 (stereo not drawn) [37-5] | – | B (0.5 ≦ B < 0.001 μM)
NCc1cccc(OCc2cc(=O)n3nc(-c4ccccc4)nc3[nH]2)c1C1CC1 [46-3] | > 500 | –
O=c1cc(COc2ccccc2Br)[nH]c2nc(-c3ccccc3)nn12 [1-73] | – | B (0.5 ≦ B < 0.001 μM)
O=C(NCC1CC1)c1ccccc1OCc1[nH]c2nc(-c3ccccc3)nn2c(=O)c1Cl [24-15] | – | B (0.5 ≦ B < 0.001 μM)
O=c1cc(CN2CCC(c3cccc(Cl)c3)C2)[nH]c2nc(-c3ccccc3)nn12 (stereo not drawn) [1-91] | > 500 | –
Cc1cc(NC(=O)c2c(Cl)cccc2OCc2cc(=O)n3nc(-c4ccccc4)nc3[nH]2)n(C)n1 [47-7, 2-chloro-N-(1,3-dimethyl-1H-pyrazol-5-yl)-6-((7-oxo-2-phenyl-4,7-dihydro-[1,2,4]triazolo[1,5-a]pyrimidin-5-yl)methoxy)benzamide] | – | B (0.5 ≦ B < 0.001 μM)
O=C(N1C[C@@H]2C[C@@H]2[C@H]1CO)C1(OCc2cc(=O)n3nc(-c4ccccc4)nc3[nH]2)CCCCC1 [48-7, 5-((1-((1S,2S,5R)-2-(hydroxymethyl)-3-azabicyclo[3.1.0]hexane-3-carbonyl)cyclohexyloxy)methyl)-2-phenyl-[1,2,4]triazolo[1,5-a]pyrimidin-7(4H)-one] | – | B (0.5 ≦ B < 0.001 μM)
Cc1c(Cl)cccc1OCc1cc(=O)n2nc(-c3ccccc3Cl)nc2[nH]1 [25-7] | > 500 | –
O=C(NCCC1CC1)c1ccccc1OCc1[nH]c2nc(-c3ccccc3)nn2c(=O)c1Cl [24-14] | – | B (0.5 ≦ B < 0.001 μM)
O=c1cc(COc2ccc(Cl)c(F)c2)[nH]c2nc(-c3ccccc3)nn12 [1-94] | – | B (0.5 ≦ B < 0.001 μM)
COCc1c(Cl)cccc1OCc1cc(=O)n2nc(-c3ccccc3)nc2[nH]1 [22-2] | – | B (0.5 ≦ B < 0.001 μM)
CN(CC1CC1)C(=O)c1c(Cl)cccc1OCc1cc(=O)n2nc(-c3ccccc3)nc2[nH]1 [47-46] | > 500 | –
O=c1c(Cl)c(CN2CCOc3c(Br)cccc32)[nH]c2nc(-c3ccccc3)nn12 [24-4] | – | B (0.5 ≦ B < 0.001 μM)
CN(C(=O)c1ccccc1OCc1cc(=O)n2nc(-c3ccccc3)nc2[nH]1)C1CCCCC1 [47-62] | – | B (0.5 ≦ B < 0.001 μM)
CCc1ccc(OCc2cc(=O)n3nc(-c4ccccc4)nc3[nH]2)c(C(C)(C)C)c1 [1-68] | – | B (0.5 ≦ B < 0.001 μM)
O=c1cc(COc2ccccc2C(F)(F)F)[nH]c2nc(-c3ccccc3)nn12 [1-62] | – | B (0.5 ≦ B < 0.001 μM)
O=C(NCc1ccccc1C(F)(F)F)C1(OCc2cc(=O)n3nc(-c4ccccc4)nc3[nH]2)CCCCC1 [48-49] | – | B (0.5 ≦ B < 0.001 μM)
O=C(NCC1(O)CCOCC1)C1(OCc2cc(=O)n3nc(-c4ccccc4)nc3[nH]2)CCCCC1 [48-61] | – | B (0.5 ≦ B < 0.001 μM)
O=c1c(Br)c(COc2cccc(Cl)c2C2CC2)[nH]c2nc(-c3ccccc3)nn12 [23-1] | – | B (0.5 ≦ B < 0.001 μM)
Cn1ccc(NC(=O)c2c(Cl)cccc2OCc2cc(=O)n3nc(-c4ccccc4)nc3[nH]2)n1 [47-40] | – | B (0.5 ≦ B < 0.001 μM)
Cc1c(Cl)cccc1OCc1cc(=O)n2nc(-c3ccccn3)nc2[nH]1 [25-3] | – | B (0.5 ≦ B < 0.001 μM)
O=C(O)c1c(Cl)cccc1OCc1cc(=O)n2nc(C(F)(F)F)nc2[nH]1 [53-3] | > 500 | –
Cc1c(Cl)cccc1OCc1[nH]c2nc(-c3ccccc3)nn2c(=O)c1F [36-1] | – | B (0.5 ≦ B < 0.001 μM)
